Experimental data from the NIST ThermoML archive (doi:10.1016/j.fluid.2017.09.023).

Settings: Crystal, Transpiration method

CC(=O)Nc1ccccc1 [N-phenylethanamide]
Settings | vapor or sublimation pressure [kPa]
316.3 K | 9e-05
320.3 K | 0.00015
322.3 K | 0.00018
323.2 K | 0.00021
325.3 K | 0.00025
327 K | 0.0003
328.1 K | 0.00035
328.2 K | 0.00033
333.3 K | 0.0006
334.3 K | 0.00064
337.1 K | 0.00088
339.4 K | 0.00114
340.3 K | 0.00119
342.4 K | 0.00159
345.5 K | 0.00205
346.1 K | 0.00214
347.2 K | 0.0024
349.4 K | 0.00299
351.2 K | 0.00356
352.5 K | 0.00422
355.5 K | 0.00532
356.4 K | 0.00601
357.4 K | 0.00636
359.2 K | 0.00759
360.2 K | 0.00852
362.2 K | 0.01028
364.3 K | 0.01261
365.3 K | 0.01406
366.7 K | 0.01576
368.4 K | 0.01777
369.2 K | 0.01911
372.2 K | 0.02411
